Key:
[1] = Precipitation of coenzyme Q10 in the growth-promoting agent; type: physicochemical; details: growth-promoting agent diluted with city water, up to 100 ppm
Method: First, 1.25 g of water-solubilized coenzyme Q10 (Aqua Q10-P40 containing coenzyme Q10 in an amount of 40% by mass manufactured by Nisshin Pharma Inc.) was diluted using 500 ml of city water to prepare a solution of 1000 ppm of coenzyme Q10. This was diluted with city water to prepare a growth-promoting agent in a solubilized form containing coenzyme Q10 (sometimes described as CoQ10) in the amount of 10 ppm or 100 ppm.

radish sprouts = assay: Growth promotion effect test I of water-solubilized coenzyme Q10; type: in vivo; details: high concentration of 100 ppm of coenzyme Q10
Method: A Kimtowel was matted on a petri dish, 100 mL of a growth-promoting agent in Example 1 was poured thereon, and 20 seeds of radish sprouts (produced by Noguchi Seed and Seedling Laboratory) were placed thereon. This petri dish was stored at room temperature under a light shielding condition. After 7 days, the sprouts were collected, and a total length and a root length of the radish sprouts were measured. Data as the control was a result obtained by measuring the total length of the plant in the same way as described above, except that city water was used in place of the growth-promoting agent (data as the control described below was a result obtained by the same way described above). Numerical values in the Table represent a mean of measured values unless otherwise explained (Numerical values in the Table described below represent the same described above). A growth rate was calculated based on the following formula (Numerical A growth rate was calculated by the same way described above): [(A−B)/B]×100, wherein A denotes a measured value of the total length of the plant cultivated in the presence of the growth-promoting agent containing coenzyme Q10, and B denotes a measured value of the total length of the plant as the control plant.

Komatsuna = assay: Growth promotion effect test IV of water-solubilized coenzyme Q10; type: in vivo; details: growth-promoting agent in Example 3 (CoQ10 1 ppm), after 7 days
Method: (§1) A required number of petri dishes were prepared, the Kimtowel was matted on the each petri dish, 100 mL of the growth-promoting agent in Example 3 was poured thereon, and 40 seeds (produced by Noguchi Seed and Seedling Laboratory) of the plants described in Table 4 were placed thereon. These petri dishes were stored at room temperature under the light shielding condition. After 7 days, sprouts were collected, and the total length of the plants described in Table 4 was measured. The growth rate was calculated based on the following formula (A growth rate was calculated by the same way described above): [(A−B)/B]×100, wherein A denotes a measured value of the total length of the plant cultivated in the presence of the growth-promoting agent containing CoQ10, and B denotes the measured value of the total length of the plant as the control.

Crown daisy = assay: as above; type: in vivo; details: growth-promoting agent in Example 3 (CoQ10 1 ppm), after 7 days
Method: as §1

Spinach = assay: as above; type: in vivo; details: growth-promoting agent in Example 3 (CoQ10 1 ppm), after 7 days
Method: as §1

Burdock = assay: as above; type: in vivo; details: growth-promoting agent in Example 3 (CoQ10 1 ppm), after 7 days
Method: as §1

Snow peas = assay: Growth promotion effect test V of water-solubilized coenzyme Q10; type: in vivo; details: same way as test IV (CoQ10 1 ppm)
Method: (§2) A required number of petri dishes were prepared, the Kimtowel was matted on the each petri dish, 100 mL of the growth-promoting agent in Example 3 was poured thereon, and 40 seeds (produced by Noguchi Seed and Seedling Laboratory) of the plants described in Table 4 were placed thereon. These petri dishes were stored at room temperature under the light shielding condition. After 7 days, sprouts were collected, and the total length of the plants described in Table 4 was measured. The required number of petri dishes was prepared, and the growth-promoting effect on seeds (produced by Noguchi Seed and Seedling Laboratory) of the plants described in Table 5 was examined in the same way as in Growth promotion effect test IV of water-solubilized coenzyme Q10. 30 seeds of wheat were examined. Buckwheat and snow peas were stored at room temperature under the light shielding condition, and collected after 8 days. Spinach was stored at room temperature under the light shielding condition, and collected after 9 days.

Wheat = assay: as above; type: in vivo; details: 30 seeds, same way as test IV (CoQ10 1 ppm)
Method: as §2

Buckwheat = assay: as above; type: in vivo; details: same way as test IV (CoQ10 1 ppm)
Method: as §2

Chives = assay: as above; type: in vivo; details: same way as test IV (CoQ10 1 ppm)
Method: as §2

Green onions = assay: as above; type: in vivo; details: same way as test IV (CoQ10 1 ppm)
Method: as §2

[2] = room temperature, light shielding
[3] = room temperature, light shielding, collected after 8 days

precipitation of coenzyme Q10 [1]: not precipitated
concentration disorder (radish sprouts): without causing a concentration disorder
Structure (SMILES): COC1=C(OC)C(=O)C(C/C=C(\C)CC/C=C(\C)CC/C=C(\C)CC/C=C(\C)CC/C=C(\C)CC/C=C(\C)CC/C=C(\C)CC/C=C(\C)CC/C=C(\C)CCC=C(C)C)=C(C)C1=O [CoQ10, coenzyme Q10]
Growth increase rate (Komatsuna; versus control): 15.6%
Measured value (total length) (Komatsuna; [2]): 8.87 cm
Growth increase rate (Crown daisy; versus control): 17.9%
Measured value (total length) (Crown daisy; [2]): 5.46 cm
Growth increase rate (Spinach; versus control): 10.5%
Measured value (total length) (Spinach; [2]): 4.22 cm
Growth increase rate (Burdock; versus control): 12.7%
Measured value (total length) (Burdock; [2]): 4.96 cm
Growth increase rate (Snow peas; after 8 days, versus control): 17.1%
Measured value (total length) (Snow peas; [3]): 29.31 cm
Measured value (total length) (Wheat; [2]): 14.16 cm
Growth increase rate (Wheat; versus control): 44.6%
Growth increase rate (Buckwheat; after 8 days, versus control): 12.8%
Measured value (total length) (Buckwheat; [3]): 25.01 cm
Measured value (total length) (Chives; [2]): 2.90 cm
Growth increase rate (Chives; versus control): 22.4%
Measured value (total length) (Green onions; [2]): 3.02 cm
Growth increase rate (Green onions; versus control): 19.4%

— US20100179061A1, “PLANT GROWTH PROMOTER” (Nisshin Pharma Inc., priority 2007, published 2010)
